Laboratory results as given in ChEMBL document CHEMBL1201862, “PubChem BioAssay data set” (2004).
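Each compound was tested at five concentrations against cells in 96-well plates for 48 hours. At the GI50, growth is halved.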 Activity calls are given as the source filed them. Cut-off read from the data, not from the text of the source: active = GI50 up to about 1.1 µM and inactive = higher.

How the values were obtained:
Assay in all cases: DTP human tumour cell line panel, 48 h
IGROV-1 = system: IGROV-1
OVCAR-5 = system: OVCAR-5
OVCAR-4 = system: OVCAR-4
TK-10 = system: TK-10
HCT-116 = system: HCT-116
EKVX = system: EKVX
SK-MEL-2 = system: SK-MEL-2
HT-29 = system: HT-29
OVCAR-3 = system: OVCAR-3
U-251 = system: U-251
HOP-92 = system: HOP-92
SF-539 = system: SF-539
KM12 = system: KM12
ACHN = system: ACHN
HCT-15 = system: HCT-15
HOP-62 = system: HOP-62
SNB-19 = system: SNB-19
LOX IMVI = system: LOX IMVI

CC1(O)CC2C(CC1SC1CC3C(CC1(C)O)C3(C)C)C2(C)C (stereo unspecified)
GI50 (IGROV-1): 45 µM (inactive)
GI50 (OVCAR-5): 78.9 µM (inactive)
GI50 (OVCAR-4): 21.7 µM (inactive)
GI50 (TK-10): 69.7 µM (inactive)
GI50 (HCT-116): 44.8 µM (inactive)
GI50 (EKVX): 32.5 µM (inactive)
GI50 (SK-MEL-2): 40.1 µM (inactive)
GI50 (HT-29): 39.6 µM (inactive)
GI50 (OVCAR-3): 38.8 µM (inactive)
GI50 (U-251): 41.6 µM (inactive)
GI50 (HOP-92): 36.2 µM (inactive)
GI50 (SF-539): > 100 µM (inactive)
GI50 (KM12): 46.8 µM (inactive)
GI50 (ACHN): 35 µM (inactive)
GI50 (HCT-15): 39.1 µM

COc1cc2c(cc1OC)C1c3ccccc3C(C#N)(C2)N(C(=O)c2ccccc2)C1O (stereo unspecified)
GI50 (IGROV-1): 47.5 µM (inactive)
GI50 (OVCAR-5): > 100 µM (inactive)
GI50 (HOP-62): 25.7 µM (inactive)
GI50 (SNB-19): 59 µM (inactive)
GI50 (LOX IMVI): > 100 µM (inactive)
GI50 (TK-10): 93.1 µM (inactive)
GI50 (HCT-116): > 100 µM (inactive)
GI50 (EKVX): 75 µM (inactive)
GI50 (SK-MEL-2): 56.5 µM (inactive)
GI50 (HT-29): > 100 µM (inactive)
GI50 (OVCAR-3): 52.1 µM (inactive)
GI50 (U-251): 56.5 µM (inactive)
GI50 (HOP-92): > 100 µM (inactive)
GI50 (SF-539): > 100 µM (inactive)
GI50 (KM12): 46.5 µM (inactive)
GI50 (ACHN): 50 µM (inactive)
GI50 (HCT-15): 55.8 µM

CC(C)N(C(=O)C12C3C4C1C1C2C3C41I)C(C)C (stereo unspecified)
GI50 (IGROV-1): > 100 µM (inactive)
GI50 (OVCAR-5): 84.3 µM (inactive)
GI50 (OVCAR-4): > 100 µM (inactive)
GI50 (SNB-19): > 100 µM (inactive)
GI50 (TK-10): > 100 µM (inactive)
GI50 (HCT-116): > 100 µM (inactive)
GI50 (EKVX): > 100 µM (inactive)
GI50 (HT-29): > 100 µM (inactive)
GI50 (OVCAR-3): > 100 µM (inactive)
GI50 (HOP-92): 88.9 µM (inactive)
GI50 (SF-539): > 10 µM (inactive)
GI50 (KM12): > 100 µM (inactive)
GI50 (ACHN): > 100 µM (inactive)

COC(=O)C1=C(O)c2cc3c(cc2[C@H](c2cc(OC)c(OC)c(OC)c2)C1)OCO3
GI50 (IGROV-1): 24.4 µM (inactive)
GI50 (OVCAR-5): > 100 µM (inactive)
GI50 (HOP-62): > 100 µM (inactive)
GI50 (OVCAR-4): 32.5 µM (inactive)
GI50 (SNB-19): > 100 µM (inactive)
GI50 (LOX IMVI): 30.5 µM (inactive)
GI50 (TK-10): 34.4 µM (inactive)
GI50 (HCT-116): 55.3 µM (inactive)
GI50 (HT-29): 48.1 µM (inactive)
GI50 (OVCAR-3): 19 µM (inactive)
GI50 (U-251): 44.5 µM (inactive)
GI50 (HOP-92): 96.8 µM (inactive)
GI50 (SF-539): > 100 µM (inactive)
GI50 (KM12): 23.3 µM (inactive)
GI50 (ACHN): 23.1 µM (inactive)
GI50 (HCT-15): 25.2 µM

COc1ccc(C2ON(c3cccc(C)n3)CC=C2C)cc1 (stereo unspecified)
GI50 (IGROV-1): 60.8 µM (inactive)
GI50 (OVCAR-5): > 100 µM (inactive)
GI50 (HOP-62): 65.3 µM (inactive)
GI50 (OVCAR-4): 62.5 µM (inactive)
GI50 (SNB-19): 97.1 µM (inactive)
GI50 (LOX IMVI): 41.5 µM (inactive)
GI50 (EKVX): > 100 µM (inactive)
GI50 (SK-MEL-2): 27.4 µM (inactive)
GI50 (HT-29): 32 µM (inactive)
GI50 (OVCAR-3): > 100 µM (inactive)
GI50 (U-251): 32.4 µM (inactive)
GI50 (SF-539): 60 µM (inactive)
GI50 (KM12): 36.3 µM (inactive)
GI50 (ACHN): 56 µM (inactive)
GI50 (HCT-15): 26.9 µM
